Measured values reported in ChEMBL document CHEMBL5113371, “Lipolytic enzymes inhibitors: A new way for antibacterial drugs discovery” (Eur J Med Chem, 2021).
Values after ≈ are worked out from the molar mass of the structure shown.

Tests used:
[1] = test system: Mycobacterium tuberculosis H37Rv; experiment: Antibacterial activity against Mycobacterium tuberculosis H37Rv expressing GFP incubated for 7 days; format: functional, Mycobacterium tuberculosis variant bovis
[2] = test system: Mycobacterium tuberculosis H37Rv; experiment: Antibacterial activity against Mycobacterium tuberculosis H37Rv expressing GFP infected in mouse Raw264.7 cells incubated for 5 days by SYTO 60 staining method; format: functional
[3] = test system: Mycobacterium tuberculosis variant bovis; experiment: Antibacterial activity against VLDL-treated Mycobacterium bovis BCG assessed as level of intrabacterial lipid inclusions profile relative to control; format: functional
[4] = Mycobacterium tuberculosis variant bovis, time 5.0 day

Structure (SMILES) | MIC50 ([1]; 168 h, time 7 day) | MIC50 ([2]; 120 h, time 5 day) | further results
CCCCCCCCCCCCCCCCOP1(=O)OCCC(C(=O)OC)=C(C)O1 (centres undefined) | 0.5 µM (≈ 0.223 µg/mL) | – | MIC50 [2, 4]: NE
NNC(=O)c1ccncc1 [ISONIAZID] | 1.2 µM (≈ 0.165 µg/mL) | 1.2 µM (≈ 0.165 µg/mL) | –
CCCCCCCCCCCC[C@H]1CC[P@@](=O)(OC)OC(C)=C1C(=O)OC | > 100 µM | – | –
CO[C@H]1/C=C/O[C@@]2(C)Oc3c(C)c(O)c4c(O)c(c(/C=N/N5CCN(C)CC5)c(O)c4c3C2=O)NC(=O)/C(C)=C\C=C\[C@H](C)[C@H](O)[C@@H](C)[C@@H](O)[C@@H](C)[C@H](OC(C)=O)[C@@H]1C [RIFAMPIN] | 0.01 µM (≈ 0.00823 µg/mL) | 2.9 µM (≈ 2.39 µg/mL) | –
CCCCCCOc1nn(-c2ccc(Oc3ccccc3)cc2)c(=O)o1 | > 50 µM | 9.5 µM (≈ 3.37 µg/mL) | –
CCCCC[C@H]1CC[P@@](=O)(OC)OC(C)=C1C(=O)OC | – | – | MIC50 ([1]; Mycobacterium tuberculosis variant bovis, time 7.0 day): NE
CCCCCCOc1nn(-c2ccccc2)c(=O)o1 | 44.6 µM (≈ 11.7 µg/mL) | – | MIC50 [2, 4]: NE
CCCCCCCCCCCCCCCCO[P@]1(=O)OC[C@H]2COC(=O)C2=C(C)O1 | 1.7 µM (≈ 0.756 µg/mL) | – | MIC50 [2, 4]: NE
CCCCCCCCCCCCCCCCO[P@]1(=O)OC[C@@H]2COC(=O)C2=C(C)O1 | – | – | MIC50 [2, 4]: NE
CCCCCCCCCC[C@H]1CC[P@@](=O)(OC)OC(C)=C1C(=O)OC | 16.6 µM (≈ 6.22 µg/mL) | 3.1 µM (≈ 1.16 µg/mL) | –
CCCCCCCCCC[C@@H]1CC[P@@](=O)(OC)OC(C)=C1C(=O)OC | – | 4.5 µM (≈ 1.69 µg/mL) | –
COc1nn(-c2cccc(Oc3ccccc3)c2)c(=O)o1 | – | – | Activity [3]: 90%
CC(C)COc1nn(-c2ccc(Oc3ccccc3)cc2)c(=O)o1 | 32 µM (≈ 10.4 µg/mL) | 8.5 µM (≈ 2.77 µg/mL) | –
CC(C)COc1nn(-c2ccccc2)c(=O)o1 | > 50 µM | 17.1 µM (≈ 4.01 µg/mL) | –
O=c1oc(OCCOCc2ccccc2)nn1-c1ccc(Oc2ccccc2)cc1 | > 50 µM | 3.5 µM (≈ 1.42 µg/mL) | –
O=c1oc(OCCOCc2ccccc2)nn1-c1ccccc1 | 30.8 µM (≈ 9.62 µg/mL) | – | MIC50 [2, 4]: NE
CCCCCCCCCCCC[C@@H]1CC[P@@](=O)(OC)OC(C)=C1C(=O)OC | 40.4 µM (≈ 16.3 µg/mL) | 4 µM (≈ 1.61 µg/mL) | –
